The text below walks through data of patent US20250051347A1, “BIFUNCTIONAL CHIMERIC HETEROCYCLIC COMPOUND AND USE THEREOF AS ANDROGEN RECEPTOR DEGRADER” (Hinova Pharmaceuticals, Inc., priority 2021, published 2025).

In the assay the target is T1, androgen receptor (AR) splicing variant AR-v7 (Homo sapiens, UniProt P10275).
T1 construct: The degradation activity of compounds on AR-v7 in 22RV1 cells; host or cells: 22RV1 cells
T1 sequence (P10275 1-644 isoform P10275-3): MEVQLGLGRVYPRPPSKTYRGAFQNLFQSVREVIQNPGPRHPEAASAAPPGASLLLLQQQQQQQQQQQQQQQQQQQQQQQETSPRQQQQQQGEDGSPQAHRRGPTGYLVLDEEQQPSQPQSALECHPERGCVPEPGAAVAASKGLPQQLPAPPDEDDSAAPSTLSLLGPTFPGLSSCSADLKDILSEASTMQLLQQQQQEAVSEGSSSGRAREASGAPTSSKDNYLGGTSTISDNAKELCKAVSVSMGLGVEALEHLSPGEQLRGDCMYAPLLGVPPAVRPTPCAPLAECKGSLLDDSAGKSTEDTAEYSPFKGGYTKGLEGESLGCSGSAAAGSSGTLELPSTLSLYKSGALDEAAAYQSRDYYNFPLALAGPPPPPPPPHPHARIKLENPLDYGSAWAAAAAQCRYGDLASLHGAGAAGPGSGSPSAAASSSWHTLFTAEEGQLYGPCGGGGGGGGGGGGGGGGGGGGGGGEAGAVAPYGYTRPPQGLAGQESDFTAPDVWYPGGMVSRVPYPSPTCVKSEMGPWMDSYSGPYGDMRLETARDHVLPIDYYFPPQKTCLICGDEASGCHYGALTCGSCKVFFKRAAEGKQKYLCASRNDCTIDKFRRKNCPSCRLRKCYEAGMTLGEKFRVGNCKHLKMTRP
Kind of assay: Degradation activity on androgen receptor splicing variant AR-v7 in 22RV1 cells (ELISA). The format is cell-based. To be noted: AR-v7 degradation in 22RV1 cells, 48 h. Here is the method: The degradation activity of the compound of the present invention on the androgen receptor splicing variant AR-V7 was analyzed using enzyme-linked immunosorbent assay (ELISA).
The plate was cultured in a 5% CO2 cell incubator at 37° C. for 2 days until the cells adhered to the wall. • 2) The drug was prepared into 10 mM stock solution with dimethylsulfoxide (DMSO). […] The plate was gently shaken and mixed. In addition, negative control wells (only containing culture medium) and positive control wells (only containing cells and DMSO) were set. • 3) After the cells were cultured in an incubator for 48 h, the medium was removed and the cells were rinsed once with ice cold PBS. Then, ice-cold 1× cell lysis buffer was added to each well of the cell culture plate. After the plate was incubated on ice for 15 min, the plate was tapped to mix. • 4) The supernatant of the cell lysate was transferred from the cell culture plate to a […] plate for ELISA. • 5) The newly prepared Capture antibody (green) was mixed with the newly prepared HRP-labeled antibody (red), and then the antibody mixture was added to the above 96-well ELISA plate. • 6) The ELISA plate was sealed with plastic film, and then incubated in a 25° C. incubator for 1 h. • 7) The washing buffer was added to each well, and then TMB substrate was added to each well of the ELISA plate. Subsequently, the plate was cultured in an incubator at 37° C. for 5 min. • 8) 100 μl of stop solution was added to each well of the ELISA plate, and the plate was gently tapped for several seconds. The absorbance was read at 450 nm within 30 min. The data were analyzed by the Dose-response equation in the software GraphPad Prism8, to obtain DC50 and Dmax values.
Background: ELISA stands for enzyme-linked immunosorbent assay.

Take `CC(C)(c1ccc(OCCCCCNc2ccc3c(c2)C(=O)N(C2CCC(=O)NC2=O)C3=O)cc1)c1ccc(OCc2ccnc(NS(C)(=O)=O)n2)cc1` (centres unmarked) [Example 38, N-(4-((4-(2-(4-((5-((2-(2,6-dioxopiperidin-3-yl)-1,3-dioxoisoindolin-5-yl)amino)pentyl)oxy)phenyl)propan-2-yl)phenoxy)methyl)pyrimidin-2-yl)methanesulfonamide]: the DC50 (numeric values) was more than 5000 nM. On the same count and under the same terms, under `CC(C)(c1ccc(OCc2ccnc(NS(C)(=O)=O)n2)cc1)c1ccc(OC[C@H]2CC[C@H](CN3CCC(CN4CCC5(CC4)CN(c4ccc6c(c4)C(=O)N(C4CCC(=O)NC4=O)C6=O)C5)CC3)CC2)cc1` (some centres unmarked) [Example 39] stands more than 10000 nM; under `CC(C)(c1ccc(OCc2ccnc(NS(C)(=O)=O)n2)cc1)c1ccc(OCC2CCN(CCCOCCCNc3ccc4c(c3)C(=O)N(C3CCC(=O)NC3=O)C4=O)CC2)cc1` (centres unmarked) [Example 40], more than 10000 nM. Same read-out and setting: with `CC(C)(c1ccc(OCc2ccnc(NS(C)(=O)=O)n2)cc1)c1ccc(OC[C@H]2CC[C@H](CN3CCC(CN4CCN(c5ccc6c(c5)C(=O)N(C5CCC(=O)NC5=O)C6=O)CC4)CC3)CC2)cc1` (some centres unmarked) [Example 43] the figure was more than 10000 nM.

Compound `CCS(=O)(=O)Nc1nccc(COc2ccc(C(C)(C)c3ccc(OCCCCCCCCOCCCCNc4ccc5c(c4)C(=O)N(C4CCC(=O)NC4=O)C5=O)cc3)cc2)n1` (centres unmarked) [Example 44] came in with a DC50 (class symbols) of 101 to 1000 nM. In the case of `CC(C)(c1ccc(OCc2ccnc(NS(C)(=O)=O)n2)cc1)c1ccc(OCC2CCN(C[C@H]3CC[C@H](CN4CCN(c5ccc6c(c5)C(=O)N(C5CCC(=O)NC5=O)C6=O)CC4)CC3)CC2)cc1` (some centres unmarked) [Example 45], the DC50 (numeric values) is 8760 nM. Still for that read-out and setting: with `CC(C)(c1ccc(OCc2ccnc(NS(C)(=O)=O)n2)cc1)c1ccc(OC2CN(c3ccc4c(c3)C(=O)N(C3CCC(=O)NC3=O)C4=O)C2)cc1` (centres unmarked) [Example 46, N-(4-((4-(2-(4-((1-(2-(2,6-dioxopiperidin-3-yl)-1,3-dioxoisoindolin-5-yl)azetidin-3-yl)oxy)phenyl)propan-2-yl)phenoxy)methyl)pyrimidin-2-yl)methanesulfonamide] the figure was more than 5000 nM. `CC(C)(c1ccc(OCc2ccnc(NS(C)(=O)=O)n2)cc1)c1ccc(OC2CN(c3cccc4c3C(=O)N(C3CCC(=O)NC3=O)C4=O)C2)cc1` (centres unmarked) [Example 47, N-(4-((4-(2-(4-((1-(2-(2,6-dioxopiperidin-3-yl)-1,3-dioxoisoindolin-4-yl)azetidin-3-yl)oxy)phenyl)propan-2-yl)phenoxy)methyl)pyrimidin-2-yl)methanesulfonamide] had a DC50 (class symbols) of 101 to 1000 nM. `CC(C)(c1ccc(OCc2ccnc(NS(C)(=O)=O)n2)cc1)c1ccc(OCC2CN(c3ccc4c(c3)C(=O)N(C3CCC(=O)NC3=O)C4=O)C2)cc1` (centres unmarked) [Example 48, N-(4-((4-(2-(4-((1-(2-(2,6-dioxopiperidin-3-yl)-1,3-dioxoisoindolin-5-yl)azetidin-3-yl)methoxy)phenyl)propan-2-yl)phenoxy)methyl)pyrimidin-2-yl)methanesulfonamide] displayed a DC50 (numeric values) of more than 10000 nM.

For the compound `CC(C)(c1ccc(OCc2ccnc(NS(C)(=O)=O)n2)cc1)c1ccc(OCC2CN(c3cccc4c3C(=O)N(C3CCC(=O)NC3=O)C4=O)C2)cc1` (centres unmarked) [Example 49, N-(4-((4-(2-(4-((1-(2-(2,6-dioxopiperidin-3-yl)-1,3-dioxoisoindolin-4-yl)azetidin-3-yl)methoxy)phenyl)propan-2-yl)phenoxy)methyl)pyrimidin-2-yl)methanesulfonamide], the DC50 (class symbols) was in the range of 1000 to 5000 nM.

The compound `CC(C)(c1ccc(OCCCCCCCCOCCCCNc2ccc3c(c2)C(=O)N(C2CCC(=O)NC2=O)C3=O)cc1)c1ccc(OCc2ccnc(NS(=O)(=O)C3CC3)n2)cc1` (centres unmarked) [Example 50] displayed a DC50 (class symbols) of 101 to 1000 nM. On the same count and under the same terms, with `CC(C)(c1ccc(OCCCCCCCCOCCCCNc2ccc3c(c2)C(=O)N(C2CCC(=O)NC2=O)C3=O)cc1)c1ccc(OCc2cnc(NS(C)(=O)=O)nc2)cc1` (centres unmarked) [Example 51] the figure was 101 to 1000 nM.

As to `CC(C)(c1ccc(OCCCCCOCCCOCC2CCN(c3ccc4c(c3)C(=O)N(C3CCC(=O)NC3=O)C4=O)C2)cc1)c1ccc(OCc2ccnc(NS(C)(=O)=O)n2)cc1` (centres unmarked) [Example 52, N-(4-((4-(2-(4-((5-(3-((1-(2-(2,6-dioxopiperidin-3-yl)-1,3-dioxoisoindolin-5-yl)pyrrolidin-3-yl)methoxy)propoxy)pentyl)oxy)phenyl)propan-2-yl)phenoxy)methyl)pyrimidin-2-yl)methanesulfonamide], the DC50 (numeric values) is more than 10000 nM. In turn, `CC(C)(c1ccc(OCCNc2cccc3c2C(=O)N(C2CCC(=O)NC2=O)C3=O)cc1)c1ccc(OCc2ccnc(NS(C)(=O)=O)n2)cc1` (centres unmarked) [Example 53, N-(4-((4-(2-(4-(2-((2-(2,6-dioxopiperidin-3-yl)-1,3-dioxoisoindolin-4-yl)amino)ethoxy)phenyl)isopropan-2-yl)phenoxy)methyl)pyrimidin-2-yl)methanesulfonamide] showed a DC50 (class symbols) of 1000 to 5000 nM. Regarding `CC(C)(c1ccc(OCCCCOCCCCNc2ccc3c(c2)C(=O)N(C2CCC(=O)NC2=O)C3=O)cc1)c1ccc(OCc2ccnc(NS(C)(=O)=O)n2)cc1` (centres unmarked) [Example 54, N-(4-((4-(2-(4-(4-(4-((2-(2,6-dioxopiperidin-3-yl)-1,3-dioxoisoindolin-5-yl)amino)butoxy)butoxy)phenyl)isopropan-2-yl)phenoxy)methyl)pyrimidin-2-yl)methanesulfonamide], the DC50 (class symbols) was 101 to 1000 nM. `CC(C)(c1ccc(OCc2ccnc(NS(C)(=O)=O)n2)cc1)c1ccc(OC[C@H]2CC[C@H](COCCCCCNc3ccc4c(c3)C(=O)N(C3CCC(=O)NC3=O)C4=O)CC2)cc1` (some centres unmarked) [Example 56, N-(4-((4-(2-(4-(((1r,4r)-4-(((5-((2-(2,6-dioxopiperidin-3-yl)-1,3-dioxoisoindolin-5-yl)amino)pentyl)oxy)methyl)cyclohexyl)methoxy)phenyl)isopropan-2-yl)phenoxy)methyl)pyrimidin-2-yl)methanesulfonamide] came in with a DC50 (numeric values) of 5200 nM. Regarding `CCC(CC)(c1ccc(OCCCCCCCCOCCCCNc2ccc3c(c2)C(=O)N(C2CCC(=O)NC2=O)C3=O)cc1)c1ccc(OCc2ccnc(NS(C)(=O)=O)n2)cc1` (centres unmarked) [Example 57, N-(4-((4-(3-(4-((8-(4-((2-(2,6-dioxopiperidin-3-yl)-1,3-dioxoisoindolin-5-yl)amino)butoxy)octyl)oxy)phenyl)pentan-3-yl)phenoxy)methyl)pyrimidin-2-yl)methanesulfonamide], the DC50 (class symbols) is 101 to 1000 nM. With `CS(=O)(=O)Nc1cc(COc2ccc(C3(c4ccc(OCCCCCCCCOCCCCNc5ccc6c(c5)C(=O)N(C5CCC(=O)NC5=O)C6=O)cc4)CCC3)cc2)ccn1` (centres unmarked) [Example 58], the DC50 (class symbols) lay in the range of 1000 to 5000 nM. On the same count and under the same terms, under `CC(C)(c1ccc(OCCCNc2cccc3c2C(=O)N(C2CCC(=O)NC2=O)C3=O)cc1)c1ccc(OCc2ccnc(N3CCOCC3)n2)cc1` (centres unmarked) [Example 59] stands 11 to 100 nM; under `CN1CCN(c2nccc(COc3ccc(C(C)(C)c4ccc(OCCCNc5cccc6c5C(=O)N(C5CCC(=O)NC5=O)C6=O)cc4)cc3)n2)CC1` (centres unmarked) [Example 60], 101 to 1000 nM. Same read-out and setting: under `CC1CN(c2nccc(COc3ccc(C(C)(C)c4ccc(OCCCCCCCCOCCCCNc5ccc6c(c5)C(=O)N(C5CCC(=O)NC5=O)C6=O)cc4)cc3)n2)C1` (centres unmarked) [Example 63] stands 1000 to 5000 nM. The compound `CC(C)(c1ccc(OCCCCCCCCOCCCCNc2ccc3c(c2)C(=O)N(C2CCC(=O)NC2=O)C3=O)cc1)c1ccc(N2CCc3cnc(N4CC5(COC5)C4)nc3C2)cc1` (centres unmarked) [Example 65, 5-((4-((8-(4-(2-(4-(2-(2-oxa-6-azaspiro[3.3]heptan-6-yl)-5,8-dihydropyrido[3,4-d]pyrimidin-7(6H)-yl)phenyl)propan-2-yl)phenoxy)octyl)oxy)butyl)amino)-2-(2,6-dioxopiperidin-3-yl)isoindolin-1,3-dione] gave a DC50 (numeric values) of more than 10000 nM. `CC(C)(c1ccc(OCCCNc2ccc3c(c2)C(=O)N(C2CCC(=O)NC2=O)C3=O)cc1)c1ccc(OCc2ccnc(S(C)(=O)=O)n2)cc1` (centres unmarked) [Example 67, 2-(2,6-dioxopiperidin-3-yl)-5-((3-(4-(2-(4-(4-(2-(methanesulfonyl)pyrimidin-4-yl)methoxy)phenyl)propan-2-yl)phenoxy)propyl)amino)isoindolin-1,3-dione] gave a DC50 (class symbols) of 1000 to 5000 nM.

In general, DC50 refers to the concentration at which degradation of the target reaches its halfway point. A high value points to degradation only at high concentration.
